Data as given in patent US20100130522A1, “COMPOUNDS FOR INFLAMMATION AND IMMUNE-RELATED USES” (Synta Pharmaceuticals Corp., priority 2008, published 2010).
pIC50: −log10 of the molar value. Structures can show the parent of a compound that is named as a salt.

Columns and labels:
CRACM1/STIM1-CHOK1 = target: T1, CRACM1/STIM1-CHOK1 (Homo sapiens, UniProt Q96D31); experiment: Patch clamp inhibition of ICRAC current in CRACM1/STIM1-CHOK1 cells; format: cell-based; details: 500 nM; given as activity class
T1 construct: Full length human Stim1, CracM1, CracM2 and CracM3 cDNA; Stim1 induced with doxycycline
Description: Manual patch clamp experiments are conducted in the tight-seal whole-cell configuration at room temperature (21-25° C.). Patch pipettes are fashioned from borosilicate glass capillary tubes and have resistances between 2-4 MΩ after filling with standard intracellular solution. High resolution current recordings are acquired with a computer-based patch clamp amplifier system (EPC-10, HEKA, Lambrecht, Germany). All voltages are corrected for a liquid junction potential of 10 mV between external and internal solutions with glutamate as the intracellular anion. Currents are filtered at 2.9 kHz and digitized at 10 μs intervals. Capacitive currents and series resistance are determined and corrected before each voltage ramp using the automatic capacitance compensation of the EPC-10.
Automated patch clamp experiments are conducted with the QPatch 16 (Sophion Bioscience, Ballerup, Denmark) at room temperature (21-25° C.). Immediately following the establishment of giga-seal whole-cell configuration, the cells membrane potential is clamped at 0 mV. Voltage ramps of 50 ms duration spanning the voltage range of −100 to +100 mV are then stimulated at a rate of 0.33 Hz. Currents are filtered at 2.9 kHz and digitized at 200 μs intervals. Capacitive currents and series resistance are determined and corrected before each voltage ramp using the automatic capacitance compensation.
In general, a whole cell patch clamp method is used to examine the effects of a compound of the invention on a channel(s) that mediates ICRAC. In such experiments, a baseline ICRAC measurement is established within the first 70 voltage ramps, or 140 seconds, for a patched cell. Then the cells are perfused with the compound to be tested and the effect of the compound on ICRAC is measured for at least an additional 440 to 500 seconds. A compound that modulates ICRAC (e.g., inhibits) is a compound that is useful in the invention for modulating CRAG ion channel activity.
Off-line analysis with the Heka PatchMaster software is used to separate the ICRAC membrane current from the cells basal background currents. In a typical recording, InsP3 stimulated ICRAC currents begin to develop in 6 to 12 seconds after whole cell is established. Therefore, the first 1-4 voltage ramps represent the basal membrane currents in the absence of ICRAC and the average value is subtracted from all subsequent traces. The current value at −80 mV for each ramp trace is then measured and plotted against time. The resulting current versus time data is exported into a Microsoft Excel spreadsheet. The % ICRAC inhibition in each cell is calculated by comparing the amount of current just prior to the compound perfusion to the amount of current after the cells has been perfused with the compound for 440-500 seconds. The IC50 value and Hill coefficient for each compound is estimated by fitting all the individual data points to a single-site Hill equation.
TREx™-CHO cells were transfected with human Stim1 (recombinant DNA in pcDNA4/TO/myc-His™ A with a myc epitope tag in the N-terminal) and either CracM1, CracM2 or CracM3 (recombinant DNA in pcDNA 3.1 with a HA epitope tag in the N-terminal). Stably expressing cells were selected by growing the transfected cells in antibiotics for two to three weeks. Individual cell clones were isolated via serial dilution. Full length human Stim1, CracM1, CracM2 and CracM3 cDNA, TREx™-CHO cells, pcDNA4/TO/myc-His™ A and pcDNA 3.1 were purchased from Invitrogen (Carlsbad, Calif.). All cells clones are grown in Ham's F-12 media supplemented with 10% fetal bovine serum, penicillin 100 U/ml, streptomycin 100 ? g/ml, Zeocin™ (200 ? g/ml), Geneticin (500 ? g/ml) and blasticidin (10 ? g/ml) in an atmosphere of 95% air/5% CO2. Stim1 expression was induced with doxycycline (1 ? g/ml) for 16-20 hrs. […]

[1] = system: IL-2 production, Jurkat cells; experiment: Inhibition of IL-2 production in PHA-activated Jurkat cells (ELISA); format: cell-based; details: Homo sapiens, 1% FBS, given as activity class
Description: Jurkat cells were placed in a 96 well plate (0.5 million cells per well in 1% FBS medium), and then a test compound of this invention was added at different concentrations. After 10 minutes, the cells were activated with PHA (final concentration 2.5 μg/mL) and incubated for 20 hours at 37° C. under 5% CO2. The final volume was 200 μL. Following incubation, the cells were centrifuged, and the supernatants collected and stored at −70° C. prior to assaying for IL-2 production. A commercial ELISA kit (IL-2 Eli-pair, Diaclone Research, Besancon, France) was used to detect production of IL-2, from which dose response curves were obtained. The IC50 value was calculated as the concentration at which 50% of maximum IL-2 production after stimulation was inhibited versus a non-stimulation control.

T1 sequence (Q96D31 whole entry): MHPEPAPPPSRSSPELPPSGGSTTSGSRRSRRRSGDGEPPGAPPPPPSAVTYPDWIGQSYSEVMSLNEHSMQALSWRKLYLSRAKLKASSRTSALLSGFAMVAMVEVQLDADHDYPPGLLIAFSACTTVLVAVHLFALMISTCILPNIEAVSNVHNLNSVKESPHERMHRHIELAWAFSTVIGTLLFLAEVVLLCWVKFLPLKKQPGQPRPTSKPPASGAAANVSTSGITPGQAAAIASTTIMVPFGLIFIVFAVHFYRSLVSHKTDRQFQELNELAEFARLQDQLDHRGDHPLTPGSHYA

Row | inhibition at 0.5 µM (CRACM1/STIM1-CHOK1) [%] | pIC50 [1] | Compound
1 | < 50 | > 7.30 | Cc1ccc(-c2nc(-c3cccnc3)cs2)cc1-c1ccc(NC(=O)c2c(F)cccc2F)cc1 [Compound 19, 2,6-difluoro-N-(2′-methyl-5′-(4-(pyridin-3-yl)thiazol-2-yl)biphenyl-4-yl)benzamide hydrochloride]
2 | 70 to 100 | > 7.30 | Cc1ccc(-c2nc(-c3cccnc3)cs2)cc1-c1cnc(NC(=O)c2c(F)cccc2F)cn1 [Compound 20, 2,6-difluoro-N-(5-(2-methyl-5-(4-(pyridin-3-yl)thiazol-2-yl)phenyl)pyrazin-2-yl)benzamide]
3 | < 50 | 7.00 to 7.30 | Cc1ccc(-c2ncc(-c3cnco3)s2)cc1-c1ccc(NC(=O)c2c(F)cccc2F)cc1 [Compound 21, 2,6-difluoro-N-(2′-methyl-5′-(5-(oxazol-5-yl)thiazol-2-yl)biphenyl-4-yl)benzamide]
4 | 70 to 100 | > 7.30 | COc1ccc(-c2ccc(C)c(-c3ccc(NC(=O)c4c(F)cccc4F)cc3)c2)cn1 [Compound 22, 2,6-difluoro-N-(5′-(6-methoxypyridin-3-yl)-2′-methylbiphenyl-4-yl)benzamide]
